# According to patent publication US20220175761A1, “BI-LIGAND DRUG CONJUGATE AND USE THEREOF” (COHERENT BIOPHARMA (SUZHOU), LIMITED, priority 2019, published 2022):
# Square brackets hold non-standard residues; d marks the D form. Peptide text beside a SMILES is read from it. * marks the point of attachment. Dolaproine = CO[C@@H]([C@@H]1CCCN1)[C@@H](C)C(=O)O; Dil = CC[C@H](C)[C@H](NC)[C@@H](CC(=O)O)OC; X1 = C[C@@H](N*)[C@@H](O)c1ccccc1; NMeV = CN[C@H](C(=O)O)C(C)C
# How the values were obtained:
# [1] = tested on: KB, MIA paca-2, HCC1954, CALU-3 and DU145 cell lines (CDX tumor models); assay: Pharmacodynamic study 1 of CB-20BK in CDX models; format: in vivo, BALB/c-nude mice; conditions: tail vein injection
# Experimental: CB-20BK lyophilized powder was weighed, dissolved with PBS and prepared into a sample mother solution, and the mother solution was diluted with a physiological saline for injection to a sample solution with a working concentration for later use.
# Main cell lines: KB human oral epidermoid carcinoma cells, MIA paca-2 human pancreatic cancer cells, HCC1954 human breast cancer cells, CALU-3 human lung adenocarcinoma cells and DU145 human prostate cancer cells.
# Model construction: The cells were resuscitated, cultured, collected, counted, and subcutaneously injected into the right flank of BALB/c-nude mice. When the tumor grew and expanded to 80-160 mm^3, grouping and administration were performed, or rapidly expanded tumor masses were transferred and injected to mice for scale up.
# Grouping: When the tumor grew to about 80-160 mm^3 on average, a grouping was performed, and a model control group and different doses of administration groups were set.
# Administration: The mice were administrated via tail vein injection.
# The weight of mice and the long diameter (a) and short diameter (b) of tumor mass were measured twice a week. The formula for the calculation of tumor volume (TV) is: TV=½×a×b^2.
# FOLH1 = FOLH1 (Homo sapiens, UniProt Q04609); assay: Gator binding affinity to FOLH1 (SA probe with Biotin-CB-20BK, analyte FOLH1); set-up: purchased Sino Biologicals 15877-H07H
# Chain of FOLH1 (Q04609 44-750 limits assumed): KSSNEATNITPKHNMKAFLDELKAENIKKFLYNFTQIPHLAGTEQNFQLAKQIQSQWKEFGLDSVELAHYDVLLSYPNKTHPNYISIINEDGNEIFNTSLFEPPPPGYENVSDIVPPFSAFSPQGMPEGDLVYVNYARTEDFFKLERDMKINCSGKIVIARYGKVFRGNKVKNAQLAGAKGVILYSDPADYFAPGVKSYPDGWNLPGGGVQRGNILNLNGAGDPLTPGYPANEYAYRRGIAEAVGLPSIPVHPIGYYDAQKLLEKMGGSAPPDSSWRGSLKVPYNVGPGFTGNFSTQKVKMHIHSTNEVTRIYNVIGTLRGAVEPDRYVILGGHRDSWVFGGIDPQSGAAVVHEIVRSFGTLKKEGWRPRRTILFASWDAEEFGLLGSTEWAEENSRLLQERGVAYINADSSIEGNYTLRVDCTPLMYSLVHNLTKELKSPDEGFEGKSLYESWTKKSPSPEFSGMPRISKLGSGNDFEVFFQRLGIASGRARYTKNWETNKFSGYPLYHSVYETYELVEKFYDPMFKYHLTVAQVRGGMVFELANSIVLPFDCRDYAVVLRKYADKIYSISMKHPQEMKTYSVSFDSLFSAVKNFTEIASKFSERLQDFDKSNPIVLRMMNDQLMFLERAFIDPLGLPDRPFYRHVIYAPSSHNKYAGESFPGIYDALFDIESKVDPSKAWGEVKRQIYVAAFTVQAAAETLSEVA
# Experimental: SA probe (Probe Life, Cat #: 1906018)
# Buffer: Q buffer (Probe Life), 10 mM, pH=7.4
# (2) The experiment was carried out according to Gator™ (Probe Life) instruction manual to determine the binding affinity of Biotin-CB-20BK to FOLH1. In the experiment, SA probe binds to ligand Biotin-CB-20BK, and the analyte is FOLH1 (Sino Biologicals, Cat #: 15877-H07H).
# FOLR1 = biological target: T1, FOLR1 (Homo sapiens, UniProt P15328); assay: BIAcore T200 binding affinity to FOLR1 (CM5 chip conjugated with FOLR1)
# T1 construct: purchased R&D System 5646-FR
# T1 sequence (P15328 25-233 limits assumed): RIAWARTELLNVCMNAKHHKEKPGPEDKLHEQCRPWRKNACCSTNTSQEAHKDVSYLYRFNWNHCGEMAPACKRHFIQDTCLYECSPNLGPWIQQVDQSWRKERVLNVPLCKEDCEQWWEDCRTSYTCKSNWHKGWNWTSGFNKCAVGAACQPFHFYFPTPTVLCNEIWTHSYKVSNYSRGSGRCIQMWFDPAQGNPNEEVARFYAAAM
# From the text: Buffer: HBS-EP+ buffer 10× (GE, Cat #: BR100669), diluted 10 folds with deionized water before use.
# In the experiment, CM5 chip was conjugated with ligand FOLR1 (R&D System, Cat #: 5646-FR).
# [2] = tested on: SK-BR-3 (human breast cancer cells); assay: Inhibition of cell line proliferation, CCK8; format: cell-based; conditions: SK-BR-3, 68-72 hours, CCK8
# Experimental: Experimental operations: LNCaP, SK-BR-3, NCI-H226, CFPAC-1 and PANC-1 cells were prepared in advance and counted; with a culture medium (IMDM+10% FBS+1× L-Glutamine+1×P/S), the cells LNCaP, SK-BR-3 and CFPAC-1 were diluted to 4×10^4 cells/ml, NCI-H226 was diluted to 2.0×10^4 cells/ml and PANC-1 was diluted to 3.0×10^4 cells/ml; the diluted cell solution was plated in 96-well plates at 100 μl/well; and negative control and blank control wells were set on each plate. After adherent cell culture overnight, the diluted samples to be tested were added at 50 μl/well. The plates were placed in an incubator at 37° C., 5% CO2 and cultured for 68-72 hours. To each well, 15 μl (10% of the liquid volume in a well) of a color developing solution from CCK8 was added; and the plates were incubated at 37° C. for 45-70 minutes and each plate was read at 450 nm on a microplate reader. The data was edited using SoftMax Pro and a 4-P fitting curve was plotted.
# Experimental Operations: LNCaP, SK-BR-3, MDA-MB-468 and CFPAC-1 cells were prepared in advance and counted; with a culture medium (IMDM+10% FBS+1× L-Glutamine+1×P/S), the cells LNCaP, SK-BR-3, MDA-MB-468 and CFPAC-1 were diluted to 4×10^4 cells/ml; the diluted cell solution was plated in 96-well plates at 100 µl/well; and negative control and blank control wells were set on each plate. After adherent cell culture overnight, the diluted samples to be tested were added at 50 μl/well. The plates were placed in an incubator at 37° C., 5% CO2 and cultured for 68-72 hours. To each well, 15 μl (10% of the liquid volume in a well) of a color developing solution from CCK8 was added; and the plates were incubated at 37° C. for 45-70 minutes and each plate was read at 450 nm on a microplate reader. The data was edited using SoftMax Pro and a 4-P fitting curve was plotted.
# [3] = tested on: NCI-H226 (human lung cancer cells); assay: Inhibition of cell line proliferation, CCK8; format: cell-based; conditions: NCI-H226, 68-72 hours, CCK8
# [4] = tested on: MDA-MB-468 (human breast cancer cells); assay: Inhibition of cell line proliferation, CCK8; format: cell-based; conditions: MDA-MB-468, 68-72 hours, CCK8
# [5] = FOLR1 on CM5 chip, N/D = no specific binding was detected
SMILES,inhibitory effect in CDX tumor models (tumor volume) [1],binding to FOLH1 (in words) (FOLH1),specific binding to FOLR1 (in words) (FOLR1; BIAcore T200),Kd (FOLR1; [5]),kd (FOLR1; [5]),"kon (FOLR1; FOLR1 on CM5 chip, N/D = no specific binding was detected, read-out: ka)",IC50 [2],IC50 [3],IC50 [4]
CC[C@H](C)[C@@H]([C@@H](CC(=O)N1CCC[C@H]1[C@H](OC)[C@@H](C)C(=O)N[C@H](C)[C@@H](O)c1ccccc1)OC)N(C)C(=O)[C@@H](NC(=O)[C@H](C(C)C)N(C)C(=O)OCc1ccc(NC(=O)C(CCCNC(N)=O)NC(=O)[C@@H](NC(=O)CCCCCN2C(=O)CC(SC[C@H](NC(=O)[C@H](CCCCN)NC(=O)[C@H](CC(=O)O)NC(=O)[C@H](CC(=O)O)NC(=O)Cc3ccc(CNC(=O)NCCCC[C@H](NC(=O)N[C@@H](CCC(=O)O)C(=O)O)C(=O)O)cc3)C(=O)N[C@@H](CCCCNC(=O)CC[C@H](NC(=O)c3ccc(NCc4cnc5[nH]c(N)nc(=O)c5n4)cc3)C(=O)O)C(N)=O)C2=O)C(C)C)cc1)C(C)C (stereo partly drawn) [CB-20BK],good inhibitory effect,binds to FOLH1 with a good affinity,specifically binds to FOLR1 with a good affinity,0.127 nM,0.000131 s⁻¹,1.03e+06 M⁻¹ s⁻¹,–,–,–
"CC[C@H](C)[C@@H]([C@@H](CC(=O)N1CCC[C@H]1[C@H](OC)[C@@H](C)C(=O)N[C@H](C)[C@@H](O)c1ccccc1)OC)N(C)C(=O)[C@@H](NC(=O)[C@@H](NC)C(C)C)C(C)C [MMAE, monomethyl auristatin E] (H-[NMeV]V[Dil][Dolaproine]-X1)",–,–,–,–,–,–,2 nM,6 nM,2 nM
